Values quoted from earlier work in PMC11756063, “The fibronectin-targeting PEG-FUD imaging probe shows enhanced uptake during fibrogenesis in experimental lung fibrosis” (Respiratory Research, 2025).

System: fibrotic mouse lung
Conditions: ref [9], [13], [65]
From the text: This study has potential impact for the field of molecular imaging of lung fibrosis, as methods that permit more precise and intricate assessment of disease progression are needed in clinical practice. In pulmonary fibrosis, potential molecular imaging targets being developed represent various disease mechanisms, such as activity of pathogenic fibroblasts and macrophages, ECM deposition, as well as detection of pro-fibrotic integrins.

## OC[C@H]1OC(O)[C@H]([18F])[C@@H](O)[C@@H]1O (stereo partly shown) [[^18F]FDG, [^18F]-fluorodeoxyglucose]
  pattern of uptake over the bleomycin model: peak uptake in the early phase of the bleomycin model that decline during the established phase
